Laboratory results as given in doi:10.1101/2025.01.10.632200, “Chemoproteomic Profiling of C. albicans for Characterization of Anti-fungal Kinase Inhibitors” (bioRxiv, 2025).
One block for each compound: values may come before it.

Columns and labels:
Format in all cases: biochemical
Yck2 [1] = molecular target: T1, Yck2 (Candida albicans, UniProt A0A1D8PKB4); assay: purified enzyme kinase assay; also NanoBRET ([…]) and MIB/MS competition
Yck2 [2] = molecular target: T1, Yck2; assay: purified enzyme kinase assay; also NanoBRET ([…])
p38α = molecular target: T2, p38α (Homo sapiens, UniProt Q16539); assay: purified enzyme kinase assay; also NanoBRET ([…])
T2 construct: gene MAPK14

CK1α = molecular target: T3, CK1α (Homo sapiens, UniProt P48729); assay: purified enzyme kinase assay
T3 construct: gene CSNK1A1
T3 sequence (P48729 2-337): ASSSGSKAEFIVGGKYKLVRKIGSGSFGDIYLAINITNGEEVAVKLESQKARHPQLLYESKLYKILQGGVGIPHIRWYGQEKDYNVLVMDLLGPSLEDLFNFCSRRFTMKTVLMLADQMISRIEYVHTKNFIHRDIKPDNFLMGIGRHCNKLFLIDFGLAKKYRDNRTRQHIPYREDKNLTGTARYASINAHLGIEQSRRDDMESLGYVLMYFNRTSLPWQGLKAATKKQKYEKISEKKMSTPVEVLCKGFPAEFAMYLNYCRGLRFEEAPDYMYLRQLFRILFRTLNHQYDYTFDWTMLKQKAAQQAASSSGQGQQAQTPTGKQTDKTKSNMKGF

Yck2 [3] = molecular target: T1, Yck2; assay: purified enzyme kinase assay

T1 sequence (A0A1D8PKB4 entry or part of it): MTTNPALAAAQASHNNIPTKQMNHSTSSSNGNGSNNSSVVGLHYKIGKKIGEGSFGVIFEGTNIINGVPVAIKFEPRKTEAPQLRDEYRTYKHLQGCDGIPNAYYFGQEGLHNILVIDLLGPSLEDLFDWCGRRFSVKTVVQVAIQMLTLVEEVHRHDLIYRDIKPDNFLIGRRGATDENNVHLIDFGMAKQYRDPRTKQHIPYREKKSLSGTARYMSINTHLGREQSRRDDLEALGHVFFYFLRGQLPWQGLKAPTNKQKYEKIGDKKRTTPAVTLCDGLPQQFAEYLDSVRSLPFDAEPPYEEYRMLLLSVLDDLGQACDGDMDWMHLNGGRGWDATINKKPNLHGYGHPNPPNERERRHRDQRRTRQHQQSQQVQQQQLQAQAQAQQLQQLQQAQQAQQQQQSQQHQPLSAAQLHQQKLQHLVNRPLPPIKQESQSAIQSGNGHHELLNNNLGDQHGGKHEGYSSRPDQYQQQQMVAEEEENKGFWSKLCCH
T2 sequence (Q16539 2-360): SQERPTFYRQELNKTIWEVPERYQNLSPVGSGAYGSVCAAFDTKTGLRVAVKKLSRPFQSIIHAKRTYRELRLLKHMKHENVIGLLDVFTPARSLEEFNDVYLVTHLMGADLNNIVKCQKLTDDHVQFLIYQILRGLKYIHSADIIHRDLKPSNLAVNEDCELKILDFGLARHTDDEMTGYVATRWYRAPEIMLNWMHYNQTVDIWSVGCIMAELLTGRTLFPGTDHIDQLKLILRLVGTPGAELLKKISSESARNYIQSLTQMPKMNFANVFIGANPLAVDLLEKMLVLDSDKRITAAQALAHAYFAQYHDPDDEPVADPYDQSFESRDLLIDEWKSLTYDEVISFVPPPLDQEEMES

Structure (SMILES): Cc1n[nH]c2ccc(-c3cc(OC[C@@H](N)Cc4ccccc4)cnc3-c3ccoc3)cc12 [GSK, GSK507358A]
IC50 (Yck2 [1]): 0.16 µM

Structure (SMILES): CC(=O)c1cnc2ccc(-c3cc(Cl)c(O)c(Cl)c3)nc2c1N[C@H]1CC[C@H](CN(C)C)CC1 [OTS-167]
IC50 (Yck2 [2]): 0.13 µM

IC50 (p38α): 0.17 µM
Structure (SMILES): Cc1ccc2c(-c3ccncc3)c(-c3ccc(F)cc3)nn2c1 [GW, GW461484A]

IC50 (CK1α): 0.014 µM
Structure (SMILES): CN1CCC(F)(Cn2cnc(-c3ccc(F)cn3)c2-c2ccnc3[nH]ccc23)CC1 [MU1742]

Structure (SMILES): Cc1nc(N)sc1-c1ccnc(Nc2ccc(N3CCOCC3)cc2)n1 [Cyc-116]
IC50 (Yck2 [3]): 0.14 µM
